From article PMC8032764 (Scientific Reports, 2021)

What was measured:
Muscarinic M1 = tested on: T1, Muscarinic M1; test: Cerep binding; parameters: species or system human; details: 10 μM; [3H]pirenzepine; hum. recomb. (CHO)
T1 construct: host or cells: CHO

Galanin 2 = tested on: T2, Galanin 2; test: Cerep binding; parameters: species or system human; details: 10 μM; [125I]galanin; hum. recomb. (CHO)
T2 construct: purchased Eurofins Cerep

[1] = Plasma levels, parallel dose groups of water maze; assay type: in vivo, rat; details: 10 mg/kg p.o., 30 min
Method: Plasma samples were collected and frozen at − 80 °C for later analysis.
(§1) The calibration range was from 1.0 to 5000 ng/mL. After protein precipitation with ethanol, the sample solution was injected onto a Gemini C18 trapping column (2 × 10 mm; Phenomenex, Torrance, CA, USA) and polar endogenous compounds and salts were rinsed off. Analytical separation was performed on an Atlantis T3 column (2.1 × 50 mm) (Waters, Milford, MA, USA), using methanol/water containing 0.1% formic acid as mobile phase. A drug analogue was used as an internal standard.

[2] = Pharmacokinetics, single oral dosing, SAD study BP25129; assay type: in vivo, Human; details: for bioavailability / Tmax / AUC(0-t) / Cmax: human, plasma, tablet, n = 6 male; for Tmax: median, read-out: Tmax (range); for AUC(0-t) / Cmax: ± percent coefficient of variation
Melatonin MT1 (ML1A) = tested on: T3, Melatonin MT1 (ML1A); test: Cerep binding; parameters: species or system human; details: 10 μM; [125I]2-iodomelatonin; hum. recomb. (CHO)
T3 construct: host or cells: CHO

Neurokinin NK1 = tested on: T4, Neurokinin NK1; test: Cerep binding; parameters: species or system human; details: 10 μM; [125I]BH-SP; hum., U-373MG cells
T4 construct: purchased Eurofins Cerep

Purinergic P2Y = test: Cerep binding; details: 10 μM; [35S]dATPαS; rat cerebral cortex
Galanin 1 = tested on: T5, Galanin 1; test: Cerep binding; parameters: species or system human; details: 10 μM; [125I]galanin; hum. recomb. (HEK-293)
T5 construct: purchased Eurofins Cerep

Chemokine CXCR2 (IL-8B) = tested on: T6, Chemokine CXCR2 (IL-8B); test: Cerep binding; parameters: species or system human; details: 10 μM; [125I]IL-8; hum. recomb. (HEK-293)
T6 construct: purchased Eurofins Cerep

Endothelin ETA = tested on: T7, Endothelin ETA; test: Cerep binding; parameters: species or system human; details: 10 μM; [125I]endothelin-1; hum. recomb. (CHO)
T7 construct: purchased Eurofins Cerep

Prostanoid IP (PGI2) = tested on: T8, Prostanoid IP (PGI2); test: Cerep binding; parameters: species or system human; details: 10 μM; [3H]iloprost; hum. recomb. (HEK-293)
T8 construct: host or cells: HEK-293

human GABAA α5β3γ2 = human GABAA α5β3γ2 (Homo sapiens, UniProt P18507+P31644); test: [3H]-Ro-15 4513 displacement assay; assay type: binding; parameters: expressed in transfected cells; host or cells: HEK293-EBNA, transient
Method: IC50 values were derived from the inhibition curve and Ki values were calculated as described below.

[3] = Pharmacokinetics, single oral dosing; assay type: in vivo; details: plasma; for Tmax: read-out: Tmax (range)
Method: Concentrations were chosen to achieve the desired doses by administering 5 mL/kg to rats and 2.5 mL/kg to NHPs via oral gavage.
as §1

[4] = Beagle, dog, 4 mg/kg oral, capsule, n = 3 male, ± standard deviation
[5] = C57/Bl6, mouse, 4 mg/kg oral, microsuspension, n = 2 male
[6] = Wistar, rat, 9 mg/kg oral, microsuspension, n = 2 male

Chain of human GABAA α5β3γ2 (P31644 32-462): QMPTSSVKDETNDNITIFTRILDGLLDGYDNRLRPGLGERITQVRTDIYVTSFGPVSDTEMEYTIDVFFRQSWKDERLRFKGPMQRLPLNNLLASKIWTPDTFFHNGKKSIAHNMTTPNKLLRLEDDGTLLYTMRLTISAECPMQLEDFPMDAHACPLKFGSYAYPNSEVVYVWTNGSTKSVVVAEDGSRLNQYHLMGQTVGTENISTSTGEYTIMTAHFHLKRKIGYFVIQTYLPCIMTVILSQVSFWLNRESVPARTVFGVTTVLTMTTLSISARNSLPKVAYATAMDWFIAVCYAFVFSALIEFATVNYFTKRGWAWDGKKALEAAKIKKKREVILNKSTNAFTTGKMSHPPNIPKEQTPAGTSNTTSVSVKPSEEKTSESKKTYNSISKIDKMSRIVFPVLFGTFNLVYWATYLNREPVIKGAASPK
Chain of human GABAA α5β3γ2 (P28472 26-473 partner): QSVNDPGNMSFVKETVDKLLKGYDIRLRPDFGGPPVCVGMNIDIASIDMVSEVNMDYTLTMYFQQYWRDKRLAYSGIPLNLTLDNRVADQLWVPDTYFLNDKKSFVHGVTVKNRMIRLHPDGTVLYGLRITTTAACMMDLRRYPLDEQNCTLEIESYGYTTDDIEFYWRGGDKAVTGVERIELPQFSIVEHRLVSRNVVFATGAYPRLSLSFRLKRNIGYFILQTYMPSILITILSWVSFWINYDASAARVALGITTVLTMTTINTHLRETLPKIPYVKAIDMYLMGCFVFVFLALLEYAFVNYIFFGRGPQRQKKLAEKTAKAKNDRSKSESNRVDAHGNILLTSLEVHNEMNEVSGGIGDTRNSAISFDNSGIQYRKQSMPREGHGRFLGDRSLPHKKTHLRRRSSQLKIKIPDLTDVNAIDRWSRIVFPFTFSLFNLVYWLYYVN
Chain of human GABAA α5β3γ2 (P18507 40-475): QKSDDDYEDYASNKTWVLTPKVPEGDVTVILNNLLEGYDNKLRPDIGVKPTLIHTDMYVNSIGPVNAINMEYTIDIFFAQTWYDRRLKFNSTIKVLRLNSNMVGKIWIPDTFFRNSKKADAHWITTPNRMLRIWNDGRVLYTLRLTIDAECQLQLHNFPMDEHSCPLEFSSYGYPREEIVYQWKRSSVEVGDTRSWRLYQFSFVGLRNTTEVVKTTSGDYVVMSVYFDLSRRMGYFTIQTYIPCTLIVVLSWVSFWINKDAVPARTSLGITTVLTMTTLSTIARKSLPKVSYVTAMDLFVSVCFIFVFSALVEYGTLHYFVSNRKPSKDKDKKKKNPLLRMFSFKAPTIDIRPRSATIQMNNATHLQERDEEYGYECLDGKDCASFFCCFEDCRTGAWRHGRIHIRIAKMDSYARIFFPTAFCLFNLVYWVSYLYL

Question: For `Cc1onc(-c2ccc(F)cc2)c1COc1ccc(C(=O)N2CCS(=O)(=O)CC2)cn1` [basmisanil], which “% Inhibition” value (Muscarinic M1) is on record?
Answer: The value was 6%.

Question: And the “% Inhibition” value (Galanin 2)?
Answer: The value was -1%.

Question: What about the maximal plasma level [1] of the same molecule?
Answer: Its maximal plasma level is 903 ± 13 ng/mL.

Question: What about the bioavailability ([2]; 45 mg oral) of the same molecule?
Answer: Its bioavailability is ~75%.

Question: What about the Tmax ([2]; 45 mg oral) of the same molecule?
Answer: Its Tmax is 3.5 h.

Question: And the AUC(0-t) ([2]; 45 mg oral)?
Answer: Its AUC(0-t) is 6040 ± 38.7 ng·h/mL.

Question: And the Cmax ([2]; 45 mg oral)?
Answer: The Cmax was 767 ± 15.4 ng/mL.

Question: And the bioavailability ([2]; 160 mg oral)?
Answer: The bioavailability was ~75%.

Question: And the Tmax ([2]; 160 mg oral)?
Answer: The Tmax was 4 h.

Question: What about the AUC(0-t) ([2]; 160 mg oral) of the same molecule?
Answer: The AUC(0-t) was 20300 ng·h/mL.

Question: And the Cmax ([2]; 160 mg oral)?
Answer: The Cmax was 1860 ± 14.3 ng/mL.

Question: And the bioavailability ([2]; 330 mg oral)?
Answer: The bioavailability was ~75%.

Question: What about the Tmax ([2]; 330 mg oral) of the same molecule?
Answer: Its Tmax is 4 h.

Question: And the AUC(0-t) ([2]; 330 mg oral)?
Answer: Its AUC(0-t) is 30500 ng·h/mL.

Question: And the Cmax ([2]; 330 mg oral)?
Answer: The Cmax was 2120 ± 24 ng/mL.

Question: And the maximum plasma concentration ([2]; single dose 160 mg)?
Answer: The maximum plasma concentration was 1860 ng/mL.

Question: What about the maximum plasma concentration ([2]; single dose 660 mg) of the same molecule?
Answer: The maximum plasma concentration was 3710 ng/mL.

Question: And the maximum plasma concentration ([2]; single dose 1250 mg)?
Answer: The maximum plasma concentration was 4890 ng/mL.

Question: What about the “% Inhibition” value (Melatonin MT1 (ML1A)) of the same molecule?
Answer: The value was 14%.

Question: And the “% Inhibition” value (Neurokinin NK1)?
Answer: Its value is 37%.

Question: And the “% Inhibition” value (Purinergic P2Y)?
Answer: Its value is 9%.

Question: What about the “% Inhibition” value (Galanin 1) of the same molecule?
Answer: Its value is 0%.

Question: What about the “% Inhibition” value (Chemokine CXCR2 (IL-8B)) of the same molecule?
Answer: The value was -3%.

Question: What about the “% Inhibition” value (Endothelin ETA) of the same molecule?
Answer: The value was 8%.

Question: What about the “% Inhibition” value (Prostanoid IP (PGI2)) of the same molecule?
Answer: Its value is -1%.

Question: What about the Ki (human GABAA α5β3γ2) of the same molecule?
Answer: The Ki was 7.6 ± 0.3 nM.

Question: And the bioavailability ([3]; Beagle, dog, 4 mg/kg oral, capsule, n = 3 male)?
Answer: Its bioavailability is 61%.

Question: What about the Tmax ([3]; Beagle, dog, 4 mg/kg oral, capsule, n = 3 male, median) of the same molecule?
Answer: Its Tmax is 1.5 h.

Question: What about the AUC(0-t) [3, 4] of the same molecule?
Answer: Its AUC(0-t) is 10600 ng·h/mL.

Question: And the Cmax [3, 4]?
Answer: Its Cmax is 788 ± 275 ng/mL.

Question: What about the AUC(0-t) [3, 5] of the same molecule?
Answer: Its AUC(0-t) is 455 ng·h/mL.

Question: What about the Cmax [3, 5] of the same molecule?
Answer: Its Cmax is 520 ng/mL.

Question: What about the bioavailability [3, 5] of the same molecule?
Answer: The bioavailability was 25%.

Question: What about the Tmax [3, 5] of the same molecule?
Answer: Its Tmax is 0.3 h.

Question: What about the AUC(0-t) [3, 6] of the same molecule?
Answer: Its AUC(0-t) is 1100 ng·h/mL.

Question: And the Cmax [3, 6]?
Answer: The Cmax was 400 ng/mL.

Question: What about the bioavailability [3, 6] of the same molecule?
Answer: Its bioavailability is 41%.

Question: And the Tmax [3, 6]?
Answer: Its Tmax is 0.5 h.
